For one experiment, the target named is T1, Gr5a (Drosophila melanogaster, UniProt Q9W497).
T1 construct: After cloning Gr5a cDNA into a pAC vector; expressed in transfected cells
T1 sequence (Q9W497 1-444): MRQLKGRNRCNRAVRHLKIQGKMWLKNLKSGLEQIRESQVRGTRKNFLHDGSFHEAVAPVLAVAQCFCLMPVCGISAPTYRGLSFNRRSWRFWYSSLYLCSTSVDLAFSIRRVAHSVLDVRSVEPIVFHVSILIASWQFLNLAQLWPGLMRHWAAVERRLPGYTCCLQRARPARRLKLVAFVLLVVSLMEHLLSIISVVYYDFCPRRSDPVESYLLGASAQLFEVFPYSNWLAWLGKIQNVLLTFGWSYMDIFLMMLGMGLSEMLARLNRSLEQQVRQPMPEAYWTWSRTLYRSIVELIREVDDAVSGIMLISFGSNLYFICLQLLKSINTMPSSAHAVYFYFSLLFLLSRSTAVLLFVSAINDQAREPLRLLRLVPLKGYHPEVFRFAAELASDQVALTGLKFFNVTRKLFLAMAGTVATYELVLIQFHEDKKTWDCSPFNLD
The experiment in a line: Voltage change of ISFET biosensor (sensing unit) with fixed drosophila cell line expressing Gr5a. The experiment is classed as cell-based. To be noted: FIG. 9. The protocol:
A cell line expressing Gr5a, which is one of drosophila gustatory receptors, was established with Drosophila Expression System (Invitrogen) using Drosophila Schneider 2 (S2) cells that cannot detect sugar (http://tools.invitrogen.com/content/sfs/manuals/des_man.pdf). After cloning Gr5a cDNA into a pAC vector, the S2 cell line was co-transfected with 2 μg of the cloned plasmid and 200 ng of pCoHygro which is a selection vector resistant to hygromycin, using polyethylenimine (PEI) in a Schneider medium (Invitrogen) containing no serum. A stable cell line expressing Gr5a was established by culturing in a medium containing hygromycin every 4 days, at least 6 times. A high concentration of a polycrystalline silicon thin film was deposited on a p-type silicon substrate through a low pressure chemical vapor deposition (LPCVD) vacuum equipment, and a source electrode and a drain electrode were formed spaced away from each other using lithographic and dry etching processes. An oxide layer was formed of a silicon dioxide (SiO2) layer, a hafnium oxide (HfO2) layer located on the silicon dioxide layer, and an aluminum oxide (Al2O3) layer located on the hafnium oxide layer, on the silicon layer. Rapid thermal treatment (at 850° C. for 30 seconds) was conducted under N2/O2 gas atmosphere, in order to activate the source electrode, the drain electrode, and the oxide layer, successively. […]

The next experiment relates to S2 cells. The experiment in a line: Voltage change of ISFET biosensor (reference unit) with fixed S2 cells or general culture media. The experiment is classed as cell-based, Drosophila. To be noted: FIG. 9. The text has this:
A cell line expressing Gr5a, which is one of drosophila gustatory receptors, was established with Drosophila Expression System (Invitrogen) using Drosophila Schneider 2 (S2) cells that cannot detect sugar (http://tools.invitrogen.com/content/sfs/manuals/des_man.pdf). A high concentration of a polycrystalline silicon thin film was deposited on a p-type silicon substrate through a low pressure chemical vapor deposition (LPCVD) vacuum equipment, and a source electrode and a drain electrode were formed spaced away from each other using lithographic and dry etching processes. An oxide layer was formed of a silicon dioxide (SiO2) layer, a hafnium oxide (HfO2) layer located on the silicon dioxide layer, and an aluminum oxide (Al2O3) layer located on the hafnium oxide layer, on the silicon layer. Rapid thermal treatment (at 850° C. for 30 seconds) was conducted under N2/O2 gas atmosphere, in order to activate the source electrode, the drain electrode, and the oxide layer, successively. After the rapid thermal treatment, a metal electrode was deposited by e-beam deposition. Thereafter, a wall structure was constructed with polydimethylsiloxane (PDMS), and an electrolyte was put into the wall structure, to prepare an ISFET based biosensor. A pair ISFET structure was developed capable of sensing by distinguishing the experimental group from the control group, as shown in FIG. 8. […]

SMILES strings stand for the structures.

As for `OC[C@H]1O[C@H](O[C@H]2O[C@H](CO)[C@@H](O)[C@H](O)[C@H]2O)[C@H](O)[C@@H](O)[C@@H]1O` [trehalose], the “change in voltage of the pair ISFET depending on the concentration of trehalose” value on Gr5a is on record as “voltage remarkably increases”; in the experiment with S2 cells it was “voltage changes little”.

These data come from patent publication US20160139152A1, “Biosensor Using Cell That Expresses Chemosensory Receptor That Can Detect Sugar, And Alzheimer's Disease Diagnostic Apparatus Comprising Same” (KYUNGPOOK NATIONAL UNIVERSITY INDUSTRY-ACADEMIC COOPERATION …, priority 2013, published 2016).
